Data: ChEMBL document CHEMBL3885881, “DrugMatrix”

Species on record: Rattus norvegicus
Assay: DrugMatrix - Regimen: Daily Repeat
Assay type: toxicity, organism-based, Sprague-Dawley
Design: regimen Daily Repeat, gender Male, age 6-8 weeks
Settings: in vivo, iv, vehicle 100 % SALINE; for ABSOLUTE BASOPHIL / ABSOLUTE EOSINOPHIL / ABSOLUTE LYMPHOCYTE / ABSOLUTE MONOCYTE / ABSOLUTE SEGMENTED NEUTROPHIL / BASOPHIL / EOSINOPHIL / ERYTHROCYTE COUNT / HEMATOCRIT / HEMOGLOBIN / LEUKOCYTE COUNT / LYMPHOCYTE / MEAN CORPUSCULAR HEMOGLOBIN / MEAN CORPUSCULAR HEMOGLOBIN CONCENTRATION / MEAN CORPUSCULAR VOLUME / MONOCYTE / NEUTROPHIL / NUCLEATED RED BLOOD CELLS: tissue Blood; for ALANINE AMINOTRANSFERASE / ALKALINE PHOSPHATASE / BLOOD UREA NITROGEN / CARBON DIOXIDE / CHOLESTEROL / CREATINE PHOSPHOKINASE / CREATININE / GLUCOSE / LACTATE DEHYDROGENASE / LIPASE / SODIUM / TOTAL BILIRUBIN / TOTAL PROTEIN / URIC ACID / ASPARTATE AMINOTRANSFERASE: tissue Plasma
[1] = 0 mg/kg, 72 h, dose level Control, time 3 day
[2] = 0 mg/kg, 120 h, dose level Control, time 5 day
[3] = 3 mg/kg, 72 h, dose level High, time 3 day

COc1cccc2c1C(=O)c1c(O)c3c(c(O)c1C2=O)C[C@@](O)(C(=O)CO)C[C@@H]3O[C@H]1C[C@H](N)[C@H](O)[C@H](C)O1 [DOXORUBICIN]
ABSOLUTE BASOPHIL [1]: 0 CELLS/uL | ABSOLUTE EOSINOPHIL [1]: 0 CELLS/uL | ABSOLUTE LYMPHOCYTE [1]: 7855.5 CELLS/uL | ABSOLUTE MONOCYTE [1]: 36.17 CELLS/uL | ABSOLUTE SEGMENTED NEUTROPHIL [1]: 575 CELLS/uL | BASOPHIL [1]: 0% | EOSINOPHIL [1]: 0% | ERYTHROCYTE COUNT [1]: 5.14 x10E6/uL | HEMATOCRIT [1]: 33.22% | HEMOGLOBIN [1]: 12.97 G/DL | LEUKOCYTE COUNT [1]: 8.47 x10E3/uL | LYMPHOCYTE [1]: 93.17% | MEAN CORPUSCULAR HEMOGLOBIN [1]: 25.28 pg | MEAN CORPUSCULAR HEMOGLOBIN CONCENTRATION [1]: 39.05 G/DL | MEAN CORPUSCULAR VOLUME [1]: 64.75 fL | MONOCYTE [1]: 0.33% | NEUTROPHIL [1]: 6.5% | NUCLEATED RED BLOOD CELLS [1]: 0 /100WBC | ALANINE AMINOTRANSFERASE [1]: 61.67 u/L | ALKALINE PHOSPHATASE [1]: 292.33 u/L | BLOOD UREA NITROGEN [1]: 11 mg/dL | CARBON DIOXIDE [1]: 34.67 mmol/L | CHOLESTEROL [1]: 71.17 mg/dL | CREATINE PHOSPHOKINASE [1]: 554.5 u/L | CREATININE [1]: 0.31 mg/dL | GLUCOSE [1]: 151 mg/dL | LACTATE DEHYDROGENASE [1]: 88.67 u/L | LIPASE [1]: 18.83 u/L | SODIUM [1]: 144.57 MEQ/L | TOTAL BILIRUBIN [1]: 0.17 mg/dL | TOTAL PROTEIN [1]: 5.8 G/DL | URIC ACID [1]: 0.52 mg/dL | ABSOLUTE BASOPHIL [2]: 0 CELLS/uL | ABSOLUTE EOSINOPHIL [2]: 53.33 CELLS/uL | ABSOLUTE LYMPHOCYTE [2]: 7739.83 CELLS/uL | ABSOLUTE MONOCYTE [2]: 74.83 CELLS/uL | ABSOLUTE SEGMENTED NEUTROPHIL [2]: 832 CELLS/uL | BASOPHIL [2]: 0% | EOSINOPHIL [2]: 0.67% | ERYTHROCYTE COUNT [2]: 5.55 x10E6/uL | HEMATOCRIT [2]: 34.77% | LEUKOCYTE COUNT [2]: 8.7 x10E3/uL | LYMPHOCYTE [2]: 89.17% | MEAN CORPUSCULAR HEMOGLOBIN [2]: 24.6 pg | MEAN CORPUSCULAR HEMOGLOBIN CONCENTRATION [2]: 39.2 G/DL | MEAN CORPUSCULAR VOLUME [2]: 62.78 fL | MONOCYTE [2]: 0.67% | NEUTROPHIL [2]: 9.5% | NUCLEATED RED BLOOD CELLS [2]: 0 /100WBC | ALANINE AMINOTRANSFERASE [2]: 50 u/L | ALKALINE PHOSPHATASE [2]: 271.17 u/L | ASPARTATE AMINOTRANSFERASE [2]: 84.17 u/L | BLOOD UREA NITROGEN [2]: 13.33 mg/dL | CARBON DIOXIDE [2]: 27 mmol/L | CHOLESTEROL [2]: 68 mg/dL | CREATINE PHOSPHOKINASE [2]: 313.67 u/L | CREATININE [2]: 0.21 mg/dL | GLUCOSE [2]: 163 mg/dL | LACTATE DEHYDROGENASE [2]: 75.67 u/L | LIPASE [2]: 11.5 u/L | SODIUM [2]: 143.1 MEQ/L | TOTAL BILIRUBIN [2]: 0.2 mg/dL | TOTAL PROTEIN [2]: 6.08 G/DL | URIC ACID [2]: 0.68 mg/dL | ABSOLUTE BASOPHIL [3]: 0 CELLS/uL | ABSOLUTE EOSINOPHIL [3]: 0 CELLS/uL | ABSOLUTE LYMPHOCYTE [3]: 2936 CELLS/uL | ABSOLUTE MONOCYTE [3]: 0 CELLS/uL | ABSOLUTE SEGMENTED NEUTROPHIL [3]: 230.67 CELLS/uL | BASOPHIL [3]: 0% | EOSINOPHIL [3]: 0% | ERYTHROCYTE COUNT [3]: 5.1 x10E6/uL | HEMATOCRIT [3]: 32.43% | HEMOGLOBIN [3]: 12.87 G/DL | LEUKOCYTE COUNT [3]: 3.17 x10E3/uL | LYMPHOCYTE [3]: 92.67% | MEAN CORPUSCULAR HEMOGLOBIN [3]: 25.23 pg | MEAN CORPUSCULAR HEMOGLOBIN CONCENTRATION [3]: 39.67 G/DL | MEAN CORPUSCULAR VOLUME [3]: 63.63 fL | MONOCYTE [3]: 0% | NEUTROPHIL [3]: 7.33% | NUCLEATED RED BLOOD CELLS [3]: 0 /100WBC | ALANINE AMINOTRANSFERASE [3]: 53.33 u/L | ALKALINE PHOSPHATASE [3]: 266 u/L | ASPARTATE AMINOTRANSFERASE [3]: 81.33 u/L | BLOOD UREA NITROGEN [3]: 16.67 mg/dL | CARBON DIOXIDE [3]: 31.33 mmol/L | CHOLESTEROL [3]: 79.33 mg/dL | CREATINE PHOSPHOKINASE [3]: 216.67 u/L | CREATININE [3]: 0.18 mg/dL | GLUCOSE [3]: 145 mg/dL | LACTATE DEHYDROGENASE [3]: 77.67 u/L | LIPASE [3]: 24 u/L | SODIUM [3]: 143.8 MEQ/L | TOTAL BILIRUBIN [3]: 0.1 mg/dL | TOTAL PROTEIN [3]: 5.87 G/DL | URIC ACID [3]: 0.5 mg/dL
